Data taken from patent US10006030B2, “RNA interference compositions targeting heat shock protein 90 and methods of use thereof” (SILENSEED LTD., priority 2014, dated 2018).
d = 2'-deoxy (DNA); r = 2'-OH (RNA)

How the values were obtained:
LNCaP cells = test: methylene blue (MB) cell viability assay after siRNA transfection; assay type: cell-based; details: Lipofectamine 2000 transfection, 72 hours incubation, FIG. 1
Procedure: Prostate cancer cell line LNCaP (ATCC # CRL-1740) was grown in Roswell Park Memorial Institute medium (RPMI) supplemented with 10% fetal bovine serum (FBS) and 100 units/ml penicillin/streptomycin, according to the ATCC protocol. Cells were seeded into 96-well culture plates and incubated overnight before transfection with siRNAs targeting HSP90 sequences.
Cells were transfected using Lipofectamine® 2000 transfection reagent (Life Technologies) based on manufacturer's protocol, with siRNA targeting HSP90: HSP1-1 (sense strand SEQ ID NO: 4, anti-sense strand SEQ ID NO: 8), HSP1-2 (sense strand SEQ ID NO: 5, anti-sense strand SEQ ID NO: 9), and HSP1-3 (sense strand SEQ ID NO: 6, anti-sense strand SEQ ID NO: 10). Cells were also treated with HSP90 inhibitor NVP-AUY922 (or AUY922), a resorcinylicisoxazole amide was used at 5 nM and 10 nM (with similar effect), or left untreated. After 72 hours incubation, cellular viability was determined by standard methylene blue (MB) assay, and quantitated as percentage of viable cells in relation to the untreated sample (FIG. 1).

Androgen receptor = test: AR-dependent luciferase reporter assay in transfected LNCaP cells; assay type: cell-based; details: co-transfection, 24 hours post-transfection, vs mock, p<0.05, FIG. 2
Procedure: HPS90 is known to be a chaperone of AR (androgen receptor), and is necessary for correct AR post-translational processing. To further test RNAi targeting of HSP90, an AR-dependent luciferase reporter construct was used (FIG. 2). LNCaP cells were cultured as above, and were seeded onto a 48-well culture plate. After an overnight incubation, plated cells were co-transfected using Lipofectamine® 2000 transfection reagent (Life Technologies) based on manufacturer's protocol for DNA-RNA transfections with an AR-luciferase reporter plasmid (Qiagen, CCS-1019L), and siRNA targeting HSP90 (HSP1-1 (sense strand SEQ ID NO: 4, anti-sense strand SEQ ID NO: 8); AR (siAR-1), or a non-target scrambled siRNA (si-scr). Cells transfected only with the AR-luciferase reported plasmid served as the negative control (mock). 24 hours post-transfection, cells were lysed and luciferase activity determined with the Promega luciferase detection kit.

Substance | cellular viability (percentage of viable cells in relation to the untreated sample) (LNCaP cells) | luciferase activity of AR-luciferase reporter plasmid (Androgen receptor)
HSP1-3: siRNA targeting HSP90, sense strand SEQ ID NO: 6, anti-sense strand SEQ ID NO: 10 (sense AAGUCUGGGACCAAAGCGUTT; antisense ACGCUUUGGUCCCAGACUUTT; sugars from the 5' end r19 d2, backbone not given here) | statistically significant decrease | –
HSP1-1: siRNA targeting HSP90, sense strand SEQ ID NO: 4, anti-sense strand SEQ ID NO: 8 (sense 5'-AAG ACC AAC CGA UGG AGGAdTdT-3'; antisense 5'-UCC UCC AUC GGU UGG UCUUdTdT-3; as printed in the source, key not given here) | statistically significant decrease | significantly decreased
HSP1-2: siRNA targeting HSP90, sense strand SEQ ID NO: 5, anti-sense strand SEQ ID NO: 9 (sense AAGAGCUGCAUAUUAACCUTT; antisense AGGUUAAUAUGCAGCUCUUTT; sugars from the 5' end r19 d2, backbone not given here) | statistically significant decrease | –
